Laboratory results: patent publication US12209112B2, “Methods of preventing or treating diseases, conditions, or disorders associated with chemotherapy” (The Chinese University of Hong Kong, priority 2022, dated 2025)

Tests used:
hESC-CMs = assay: α-actinin immunostaining for sarcomeric integrity; assay type: cell-based, human; settings: hESC-CMs; agent only, no doxorubicin
Experimental: hESC-CMs were permeabilized using 0.1% Triton X-100 (Thermo Fisher Scientific, USA). After permeabilizing for 15 minutes, cells were washed three times in PBS, and further permeabilization was blocked by incubating cells in PBS with 10% FBS (Hyclone, USA) for 1 hour at room temperature. Cells were incubated with the primary anti-actinin antibody (1:400) (Abcam, UK) and diluted in PBS with 10% FBS overnight. Cells were then washed three times with PBS and incubated with a goat anti-mouse IgG1 secondary antibody (1:1000 diluted in PBS with 10% FBS) (Thermo Fisher Scientific, USA) for 1 hour at room temperature. Finally, cells were washed twice with PBS and mounted using ibidi mounting medium with DAPI (Ibidi, Germany). Microscopic images were acquired using the DMi8s Research Inverted Thunder Imager Live Cell System (Leica, Germany) at 20×, 40×, and 100× magnification.

C57BL/6J male mice [1] = assay: Noninvasive blood pressure in mouse doxorubicin cardiotoxicity model; assay type: in vivo; settings: for Day 28 DBP / Day 28 SBP: after doxorubicin 5 mg/kg intraperitoneal once weekly for four weeks (Dox + groups); for Day 28 DBP / Day 28 SBP / Day 0 DBP / Day 0 SBP: n = 4 per group; for Day 0 DBP / Day 0 SBP: before doxorubicin administration
From the text: Recombinant human GDF15/MIC-1 protein (CHO-derived) was purchased from PeproTech Inc. (Cranbury, USA) and described in Example 1. […] PubChem identifier number 71384) were purchased from Abcam (Cambridge, UK). For in vitro studies, solid lyophilized powder of these two drugs were solubilized at the recommended concentrations in sterile water, and separate aliquots were made and frozen until thawing prior to addition to cell cultures. […] The recommended dose ratio of dexrazoxane to doxorubicin was 10 to 1. In the following examples, 5 mg/kg of doxorubicin was used which correspond to 50 mg/kg of dexrazoxane. The FDA recommends that dexrazoxane be injected within 0.5 hour prior to doxorubicin infusion in individuals. This was followed in the same manner when applying to the test animals. Ten- to twelve-week old C57BL/6J male mice were purchased from the Laboratory Animal Services Centre of CUHK. They were maintained in specific pathogen-free facility of the CUHK Laboratory Animal Services Centre Research Unit at Prince of Wales Hospital with free access to food and water and maintained in a light/night cycle of 12 hours/12 hours. All mice were fed a standard diet. Blood pressure of animals was measured using the noninvasive CODA® High Throughput System (Torrington, USA) in accordance with the manufacturer's instructions. Measurement platform was prewarmed and maintained at 33-35° C. O-cuffs and VPR-cuffs were used as instructed. Blood pressure of each mouse was measured for at least three cycles. Mice were released and returned to their cages immediately after measurement. Blood pressure was measured twice, once at the beginning of the experiment and once before sacrifice. To induce cardiotoxicity in the mouse, four weekly intraperitoneal injections of doxorubicin at 5 mg/kg were administered. After one dose of doxorubicin at 5-6 mg/kg in a mouse, the level of exposure has been estimated to be similar to that of a human individual being given a standard dose of doxorubicin at approximately 60 mg/m^2.

C57BL/6J male mice [2] = assay type: in vivo, mouse; settings: mice; pretreatment before doxorubicin
Experimental: (§1) Recombinant human GDF15/MIC-1 protein (CHO-derived) was purchased from PeproTech Inc. (Cranbury, USA) and described in Example 1. […] For in vitro studies, solid lyophilized powder of these two drugs were solubilized at the recommended concentrations in sterile water, and separate aliquots were made and frozen until thawing prior to addition to cell cultures. For in vivo studies, all agents were dissolved in […] normal saline according to the required concentrations (doxorubicin, 5 mg/kg; GDF15, 0.5 mg/kg; dexrazoxane, […]), and the final volume of each intraperitoneal injection was 100 μl. The recommended dose ratio of dexrazoxane to doxorubicin was 10 to 1. In the following examples, 5 mg/kg of doxorubicin was used which correspond to 50 mg/kg of dexrazoxane. The FDA recommends that dexrazoxane be injected within 0.5 hour prior to doxorubicin infusion in individuals. This was followed in the same manner when applying to the test animals.
To induce cardiotoxicity in the mouse, four weekly intraperitoneal injections of doxorubicin at 5 mg/kg were administered. After one dose of doxorubicin at 5-6 mg/kg in a mouse, the level of exposure has been estimated to be similar to that of a human individual being given a standard dose of doxorubicin at approximately 60 mg/m^2. Previous studies have shown that mice injected with doxorubicin once a week at 5 mg/kg for four weeks developed cardiotoxicity, as evidenced by decreased ventricular ejection fraction, cardiomyocyte apoptosis, histopathological changes consistent with doxorubicin-induced myocardial damage, and increased mortality rate, compared with the control group.
The hearts of mice were collected after sacrifice and fixed in 4% paraformaldehyde overnight, followed by paraffin embedding. Afterwards the hearts were cut into 4 μm thick slices. Sections were deparaffinized and rehydrated using sequential immersion in 100% alcohol, 95% alcohol and 70% alcohol for 15 minutes each. […]

C57BL/6J male mice [3] = assay: TUNEL staining of mouse myocardium (cardiomyocyte apoptosis); assay type: in vivo; settings: pretreatment before doxorubicin
Experimental: as §1
(§2) To induce cardiotoxicity in the mouse, four weekly intraperitoneal injections of doxorubicin at 5 mg/kg were administered. After one dose of doxorubicin at 5-6 mg/kg in a mouse, the level of exposure has been estimated to be similar to that of a human individual being given a standard dose of doxorubicin at approximately 60 mg/m^2. […]

C57BL/6J male mice [4] = assay type: in vivo, mouse; settings: mice; pretreatment before doxorubicin, versus doxorubicin only
Experimental: as §1, §2
The image processing and analysis software, ImageJ version 1.53K, was used for evaluation of histopathology from mouse experiments. For Masson's trichrome staining, the acquired images were converted from color to grayscale using ImageJ, the blue-stained collagen were segmented (separated) using thresholding, and the threshold areas in a representative microscopic field were quantified. […] Cells containing brown staining (TUNEL-positive cells) were counted in a representative microscopic field for each mouse in each group.

Molecule | sarcomere structure (α-actinin immunostaining) (hESC-CMs) | Day 28 DBP (C57BL/6J male mice [1]) [mmHg] | Day 28 SBP (C57BL/6J male mice [1]) [mmHg] | Day 0 DBP (C57BL/6J male mice [1]) [mmHg] | Day 0 SBP (C57BL/6J male mice [1]) [mmHg] | myocardial histopathology (hematoxylin and eosin) (C57BL/6J male mice [2]) | cardiomyocyte death by apoptosis (TUNEL staining) (C57BL/6J male mice [3]) | cardiac fibrosis (Masson's trichrome) (C57BL/6J male mice [4]) | systolic and diastolic blood pressures compared with Dex+Dox group (C57BL/6J male mice [1]; Day 28)
C[C@@H](CN1CC(=O)NC(=O)C1)N1CC(=O)NC(=O)C1.Cl [Dex, 4,4′-[(1S)-1-Methyl-1,2-ethanediyl]bis-2,6-piperazinedione hydrochloride, reference compound] | well-organized, striated sarcomeres | 84 ± 15 | 108 ± 13 | 78 ± 26 | 114 ± 14 | similarly improved | reduced extent of cardiomyocyte death by apoptosis | visually and quantitatively reduced | –
GDF15 + Dox: mice given recombinant human GDF15 pretreatment followed by doxorubicin (protein, UniProt Q99988 195-308, looked up, given with doxorubicin) Growth/differentiation factor …: ARARNGDHCPLGPGRCCRLHTVRASLEDLGWADWVLSPREVQVTMCIGACPSQFRAANMHAQIKTSLHRLKPDTVPAPCCVPASYNPMVLIQKTDTGVSLQTYDDLLAKDCHCI | – | 85 ± 13 | 111 ± 15 | 76 ± 25 | 108 ± 27 | – | – | – | lower than that of Dex+Dox treatment group
